Reference: patent US6818774B2, “Isoquinoline derivatives” (priority 2002, dated 2004)
Like-named read-outs stand apart in the source and are kept apart here.

Experiments:
human MAO-B = molecular target: T1, human MAO-B (Homo sapiens, UniProt P27338); experiment: MAO-B enzymatic activity, spectrophotometric assay (tyramine, Amplex Red) on membranes of transfected EBNA cells; type: biochemical
T1 construct: expressed in transfected cells; host or cells: EBNA cells (transient transfection); cell membranes used
T1 sequence (P27338 1-520): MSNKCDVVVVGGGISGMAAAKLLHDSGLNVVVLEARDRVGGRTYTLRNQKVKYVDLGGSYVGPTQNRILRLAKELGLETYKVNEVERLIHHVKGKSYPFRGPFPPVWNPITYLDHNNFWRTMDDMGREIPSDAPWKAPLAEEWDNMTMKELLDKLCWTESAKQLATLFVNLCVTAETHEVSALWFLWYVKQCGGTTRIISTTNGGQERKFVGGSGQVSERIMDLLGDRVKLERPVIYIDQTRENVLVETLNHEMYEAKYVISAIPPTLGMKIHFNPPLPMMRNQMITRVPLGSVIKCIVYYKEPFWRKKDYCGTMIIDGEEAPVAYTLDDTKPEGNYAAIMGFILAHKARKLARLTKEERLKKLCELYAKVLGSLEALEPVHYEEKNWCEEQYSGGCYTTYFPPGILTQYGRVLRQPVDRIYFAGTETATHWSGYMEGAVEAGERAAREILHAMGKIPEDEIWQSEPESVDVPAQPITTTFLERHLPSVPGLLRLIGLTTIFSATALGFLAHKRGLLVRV
Protocol: The cDNA's encoding human MAO-A and MAO-B were transiently transfected into EBNA cells using the procedure described by E.-J. Schlaeger and K. Christensen (Transient Gene Expression in Mammalian Cells Grown in Serum-free Suspension Culture; Cytotechnology, 15: 1-13, 1998). After transfection, cells were homogenised by means of a Polytron homogenizer in 20 mM Tris HCl buffer, pH 8.0, containing 0.5 mM EGTA and 0.5 mM phenylmethanesulfonyl fluoride. Cell membranes were obtained by centrifugation at 45,000×g and, after two rinsing step with 20 mM Tris HCl buffer, pH 8.0, containing 0.5 mM EGTA, membranes were eventually re-suspended in the above buffer and aliquots stored at −80° C. until use.
(§1) MAO-A and MAO-B enzymatic activity was assayed in 96-well-plates using a spectrophotometric assay adapted from the method described by M. Zhou and N. Panchuk-Voloshina (A One-Step Fluorometric Method for the Continuous Measurement of Monoamine Oxidase Activity, Analytical Biochemistry, 253: 169174, 1997). Briefly, membrane aliquots were incubated in 0.1 M potassium phosphate buffer, pH 7.4, for 30 min at 37° C. with or without various concentrations of the compounds. After this period, the enzymatic reaction was started by the addition of the MAO substrate tyramine together with 1 U/ml horse-radish peroxidase (Roche Biochemicals) and 80 μM N-acetyl-3,7,-dihydroxyphenoxazine (Amplex Red, Molecular Probes). The samples were further incubated for 30 min at 37° C. in a final volume of 200 μl and absorbance was then determined at a wavelength of 570 nm using a SpectraMax plate reader (Molecular Devices). Background (non-specific) absorbance was determined in the presence of 10 μM clorgyline for MAO-A or 10 μM L-deprenyl for MAO-B.
IC50 values, that is, the concentration of a test compound according to the invention required to inhibit the MAO-B enzyme activity by 50%, were determined from inhibition curves obtained using nine inhibitor concentrations in duplicate, by fitting data to a four parameter logistic equation using a computer program.

human MAO-A = molecular target: T2, human MAO-A (Homo sapiens, UniProt P21397); experiment: MAO-A enzymatic activity, spectrophotometric assay (tyramine, Amplex Red) on membranes of transfected EBNA cells; type: biochemical
T2 construct: expressed in transfected cells; host or cells: EBNA cells (transient transfection); cell membranes used
Protocol: After transfection, cells were homogenised by means of a Polytron homogenizer in 20 mM Tris HCl buffer, pH 8.0, containing 0.5 mM EGTA and 0.5 mM phenylmethanesulfonyl fluoride. Cell membranes were obtained by centrifugation at 45,000×g and, after two rinsing step with 20 mM Tris HCl buffer, pH 8.0, containing 0.5 mM EGTA, membranes were eventually re-suspended in the above buffer and aliquots stored at −80° C. until use.
as §1, with “Briefly,” for “MAO-A and MAO-B enzymatic activity was assayed in 96-well-plates using a spectrophotometric assay adapted from the method described by M. Zhou and N. Panchuk-Voloshina (A One-Step Fluorometric Method for the Continuous Measurement of Monoamine Oxidase Activity, Analytical Biochemistry, 253: 169174, 1997). Briefly,”

[1] = membranes, 30 min preincubation at 37° C., pH 7.4, substrate tyramine, read-out: IC50 MAO-A

T2 sequence (P21397 whole entry): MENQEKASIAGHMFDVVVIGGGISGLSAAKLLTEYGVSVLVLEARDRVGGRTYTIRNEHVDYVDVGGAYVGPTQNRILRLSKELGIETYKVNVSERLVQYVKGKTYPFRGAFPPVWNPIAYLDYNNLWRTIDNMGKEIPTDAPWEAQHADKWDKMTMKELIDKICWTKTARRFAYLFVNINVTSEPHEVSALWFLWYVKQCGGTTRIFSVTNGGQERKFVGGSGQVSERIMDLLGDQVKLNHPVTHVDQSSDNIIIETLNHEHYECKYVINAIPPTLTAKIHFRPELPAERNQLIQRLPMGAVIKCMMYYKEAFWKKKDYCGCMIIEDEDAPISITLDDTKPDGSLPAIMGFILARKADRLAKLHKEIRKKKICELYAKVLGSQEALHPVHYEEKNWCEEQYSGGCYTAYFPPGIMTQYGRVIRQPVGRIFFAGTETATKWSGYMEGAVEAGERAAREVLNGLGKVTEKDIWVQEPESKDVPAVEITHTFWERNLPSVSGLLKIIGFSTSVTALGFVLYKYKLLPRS

Structure (SMILES) | IC50 (human MAO-B) [nM] | IC50 (human MAO-A; [1]) [µM] | IC50 (human MAO-A) [µM]
CC(C(N)=O)N1CCc2cc(OCc3cccc(F)c3)ccc2C1=O (racemic) [Example 7, 2-[6-(3-Fluoro-benzyloxy)-1-oxo-3,4-dihydro-1H-isoquinolin-2-yl]-propionamide] | 12 | > 10 | –
O=C1NCCc2cc(OCc3cccc(F)c3)ccc21 [Example 1, 6-(3-Fluoro-benzyloxy)-3,4-dihydro-2H-isoquinolin-1-one] | 104 | 5.24 | –
NC(=O)CN1CCc2cc(OCc3cccc(F)c3)ccc2C1=O [Example 6, 2-[6-(3-Fluoro-benzyloxy)-1-oxo-3,4-dihydro-1H-isoquinolin-2-yl]-acetamide] | 8 | 0.33 | –
CC(CO)N1CCc2cc(OCc3cccc(F)c3)ccc2C1=O (stereo not shown) [Example 8, 6-(3-Fluoro-benzyloxy)-2-(2-hydroxy-1-methyl-ethyl)-3,4-dihydro-2H-isoquinolin-1-one] | 74 | > 10 | –
N#CCN1CCc2cc(OCc3cccc(F)c3)ccc2C1=O [Example 12, [6-(3-Fluoro-benzyloxy)-1-oxo-3,4-dihydro-1H-isoquinolin-2-yl]-acetonitrile] | 154 | – | –
COCC(C)N1CCc2cc(OCc3cccc(F)c3)ccc2C1=O (stereo not shown) [Example 14, 6-(3-Fluoro-benzyloxy)-2-(2-methoxy-1-methyl-ethyl)-3,4-dihydro-2H-isoquinolin-1-one] | 63 | – | 4.22
NC(=O)CCN1CCc2cc(OCc3cccc(F)c3)ccc2C1=O [Example 19, 3-[6 (3-Fluoro-benzyloxy)-1-oxo-3,4-dihydro-1H-isoquinolin-2-yl]-propionamide] | 392 | – | –
C[C@H](C(N)=O)N1CCc2cc(OCc3ccc(F)cc3)ccc2C1=O [Example 20, 2-(R)-[6-(4-Fluoro-benzyloxy)-1-oxo-3,4-dihydro-1H-isoquinolin-2-yl]-propionamide] | 12 | – | > 10
C[C@@H](C(N)=O)N1CCc2cc(OCc3ccc(F)cc3)ccc2C1=O [Example 21, 2(S)-[6-(4-Fluoro-benzyloxy)-1-oxo-3,4-dihydro-1H-isoquinolin-2-yl]-propionamide] | 18 | – | > 10
NC(=O)[C@H](CO)N1CCc2cc(OCc3ccc(F)cc3)ccc2C1=O [Example 22, 2(S)-[6(4-Fluoro-benzyloxy)-1-oxo-3,4-dihydro-1H-isoquinolin-2-yl]-3-hydroxy-propionamide] | 20 | – | > 10
CC(C)(C(N)=O)N1CCc2cc(OCc3ccc(F)cc3)ccc2C1=O [Example 30, 2-[6-(4-Fluoro-benzyloxy)-1-oxo-3,4-dihydro-1H-isoquinolin-2-yl]-isobutyramide] | 1130 | – | –
